Assay results: US9562031B1, “Phenethyldihydrobenzodioxolones and methods of use” (Sequoia Sciences, Inc., priority 2015, dated 2017)
Counter-ions that a name gives are not always drawn.

Key:
NCI-H460 or M14 cells = assay: in vitro antiproliferation assay (cell line not stated for the salt); type: cell-based; conditions: Homo sapiens, HCl salt
Protocol: For the antiproliferation assay, NCI-H460 (large cell lung carcinoma) or M14 (amelanotic melanoma) cells were grown in RPMI-1640 with 10% FBS supplemented with L-glutamine and HEPES. Cells were seeded into 96-well plates at 5×10^2 to 5×10^4 cells/well and allowed to adhere overnight; the medium was then removed. A stock solution of test compound in DMSO was diluted in medium to generate a series of working solutions. Aliquots (100 μl) of the working solutions were then added to the appropriate test wells to expose cells to the final concentrations of compound in a total volume of 100 μl. Seven different concentrations were tested, with 2-5 wells per concentration. Camptothecin was used as a positive control; wells containing vehicle without compound were used as negative controls. Plates were kept for 72 h in a 37° C., 5% CO2 incubator. After incubation, viable cells were detected with the CELLTITER 96 AQueous Non-Radioactive Cell Proliferation Assay (Promega), and IC50 values were determined using GraphPad Prism 5 software.
As stated herein, the invention also includes compounds and their salts. The HCl salt of compound 66 was prepared, and the salt retained activity in the in vitro antiproliferation assay (IC50 5-7 μM).

A498 cells = assay: NCI-60 panel antiproliferation, A498; type: cell-based, human; conditions: NCI 60-cell panel
Protocol: (§1) Bifidenone and Compound 37 were tested for antiproliferation activity against the NCI-60 panel of cancer cell lines. COMPARE analysis was then conducted to compare the activity “fingerprint” of bifidenone to those of known classes of compounds (Zhou, B.-N., Hoch, J. M., Johnson, R. K., Mattern, M. R., Eng, W.-K., Ma, J., Hecht, S. M., Newman, D. J., Kingston, D. G. I., 2000. Use of COMPARE Analysis to Discover New Natural Product Drugs: Isolation of Camptothecin and 9-Methoxycamptothecin from a New Source. Journal of Natural Products 63, 1273-1276.).

A549 cells = assay: NCI-60 panel antiproliferation, A549; type: cell-based, human; conditions: NCI 60-cell panel
Protocol: as §1

ACHN cells = assay: NCI-60 panel antiproliferation, ACHN; type: cell-based, human; conditions: NCI 60-cell panel
Protocol: as §1

BT-549 cells = assay: NCI-60 panel antiproliferation, BT-549; type: cell-based, human; conditions: NCI 60-cell panel
Protocol: as §1

Caki-1 cells = assay: NCI-60 panel antiproliferation, Caki-1; type: cell-based, human; conditions: NCI 60-cell panel
Protocol: as §1

CCRF-CEM cells = assay: NCI-60 panel antiproliferation, CCRF-CEM; type: cell-based, human; conditions: NCI 60-cell panel
Protocol: as §1

COLO205 cells = assay: NCI-60 panel antiproliferation, COLO205; type: cell-based, human; conditions: NCI 60-cell panel
Protocol: as §1

DU-145 cells = assay: NCI-60 panel antiproliferation, DU-145; type: cell-based, human; conditions: NCI 60-cell panel
Protocol: as §1

EKVX cells = assay: NCI-60 panel antiproliferation, EKVX; type: cell-based, human; conditions: NCI 60-cell panel
Protocol: as §1

HCC-2998 cells = assay: NCI-60 panel antiproliferation, HCC-2998; type: cell-based, human; conditions: NCI 60-cell panel
Protocol: as §1

HCT-15 cells = assay: NCI-60 panel antiproliferation, HCT-15; type: cell-based, human; conditions: NCI 60-cell panel
Protocol: as §1

HCT-116 cells = assay: NCI-60 panel antiproliferation, HCT-116; type: cell-based, human; conditions: NCI 60-cell panel
Protocol: as §1

HL-60 cells = assay: NCI-60 panel antiproliferation, HL-60; type: cell-based, human; conditions: NCI 60-cell panel
Protocol: as §1

HOP-62 cells = assay: NCI-60 panel antiproliferation, HOP-62; type: cell-based, human; conditions: NCI 60-cell panel
Protocol: as §1

HOP-92 cells = assay: NCI-60 panel antiproliferation, HOP-92; type: cell-based, human; conditions: NCI 60-cell panel
Protocol: as §1

Hs578T cells = assay: NCI-60 panel antiproliferation, Hs578T; type: cell-based, human; conditions: NCI 60-cell panel
Protocol: as §1

HT29 cells = assay: NCI-60 panel antiproliferation, HT29; type: cell-based, human; conditions: NCI 60-cell panel
Protocol: as §1

IGR-OV1 cells = assay: NCI-60 panel antiproliferation, IGR-OV1; type: cell-based, human; conditions: NCI 60-cell panel
Protocol: as §1

K-562 cells = assay: NCI-60 panel antiproliferation, K-562; type: cell-based, human; conditions: NCI 60-cell panel
Protocol: as §1

KM12 cells = assay: NCI-60 panel antiproliferation, KM12; type: cell-based, human; conditions: NCI 60-cell panel
Protocol: as §1

LOX IMVI cells = assay: NCI-60 panel antiproliferation, LOX IMVI; type: cell-based, human; conditions: NCI 60-cell panel
Protocol: as §1

M14 cells = assay: NCI-60 panel antiproliferation, M14; type: cell-based, human; conditions: NCI 60-cell panel
Protocol: as §1

MALME-3M cells = assay: NCI-60 panel antiproliferation, MALME-3M; type: cell-based, human; conditions: NCI 60-cell panel
Protocol: as §1

MCF-7 cells = assay: NCI-60 panel antiproliferation, MCF-7; type: cell-based, human; conditions: NCI 60-cell panel
Protocol: as §1

MDA-MB-231 cells = assay: NCI-60 panel antiproliferation, MDA-MB-231; type: cell-based, human; conditions: NCI 60-cell panel
Protocol: as §1

MDA-MB-435 cells = assay: NCI-60 panel antiproliferation, MDA-MB-435; type: cell-based, human; conditions: NCI 60-cell panel
Protocol: as §1

MDA-MB-468 cells = assay: NCI-60 panel antiproliferation, MDA-MB-468; type: cell-based, human; conditions: NCI 60-cell panel
Protocol: as §1

MOLT-4 cells = assay: NCI-60 panel antiproliferation, MOLT-4; type: cell-based, human; conditions: NCI 60-cell panel
Protocol: as §1

NCI-ADR/RES cells = assay: NCI-60 panel antiproliferation, NCI-ADR/RES; type: cell-based, human; conditions: NCI 60-cell panel
Protocol: as §1

NCI-H23 cells = assay: NCI-60 panel antiproliferation, NCI-H23; type: cell-based, human; conditions: NCI 60-cell panel
Protocol: as §1

NCI-H226 cells = assay: NCI-60 panel antiproliferation, NCI-H226; type: cell-based, human; conditions: NCI 60-cell panel
Protocol: as §1

NCI-H322M cells = assay: NCI-60 panel antiproliferation, NCI-H322M; type: cell-based, human; conditions: NCI 60-cell panel
Protocol: as §1

NCI-H460 cells = assay: NCI-60 panel antiproliferation, NCI-H460; type: cell-based, human; conditions: NCI 60-cell panel
Protocol: as §1

NCI-H522 cells = assay: NCI-60 panel antiproliferation, NCI-H522; type: cell-based, human; conditions: NCI 60-cell panel
Protocol: as §1

OVCAR-3 cells = assay: NCI-60 panel antiproliferation, OVCAR-3; type: cell-based, human; conditions: NCI 60-cell panel
Protocol: as §1

OVCAR-4 cells = assay: NCI-60 panel antiproliferation, OVCAR-4; type: cell-based, human; conditions: NCI 60-cell panel
Protocol: as §1

OVCAR-5 cells = assay: NCI-60 panel antiproliferation, OVCAR-5; type: cell-based, human; conditions: NCI 60-cell panel
Protocol: as §1

OVCAR-8 cells = assay: NCI-60 panel antiproliferation, OVCAR-8; type: cell-based, human; conditions: NCI 60-cell panel
Protocol: as §1

PC-3 cells = assay: NCI-60 panel antiproliferation, PC-3; type: cell-based, human; conditions: NCI 60-cell panel
Protocol: as §1

RPMI-8226 cells = assay: NCI-60 panel antiproliferation, RPMI-8226; type: cell-based, human; conditions: NCI 60-cell panel
Protocol: as §1

RXF-393 cells = assay: NCI-60 panel antiproliferation, RXF-393; type: cell-based, human; conditions: NCI 60-cell panel
Protocol: as §1

SF-268 cells = assay: NCI-60 panel antiproliferation, SF-268; type: cell-based, human; conditions: NCI 60-cell panel
Protocol: as §1

SF-295 cells = assay: NCI-60 panel antiproliferation, SF-295; type: cell-based, human; conditions: NCI 60-cell panel
Protocol: as §1

SF-539 cells = assay: NCI-60 panel antiproliferation, SF-539; type: cell-based, human; conditions: NCI 60-cell panel
Protocol: as §1

SK-Mel-2 cells = assay: NCI-60 panel antiproliferation, SK-MEL-2; type: cell-based, human; conditions: NCI 60-cell panel
Protocol: as §1

SK-Mel-5 cells = assay: NCI-60 panel antiproliferation, SK-MEL-5; type: cell-based, human; conditions: NCI 60-cell panel
Protocol: as §1

SK-MEL-28 cells = assay: NCI-60 panel antiproliferation, SK-MEL-28; type: cell-based, human; conditions: NCI 60-cell panel
Protocol: as §1

SK-OV-3 cells = assay: NCI-60 panel antiproliferation, SK-OV-3; type: cell-based, human; conditions: NCI 60-cell panel
Protocol: as §1

SN12C cells = assay: NCI-60 panel antiproliferation, SN12C; type: cell-based, human; conditions: NCI 60-cell panel
Protocol: as §1

SNB-19 cells = assay: NCI-60 panel antiproliferation, SNB-19; type: cell-based, human; conditions: NCI 60-cell panel
Protocol: as §1

SNB-75 cells = assay: NCI-60 panel antiproliferation, SNB-75; type: cell-based, human; conditions: NCI 60-cell panel
Protocol: as §1

SR cells = assay: NCI-60 panel antiproliferation, SR; type: cell-based, human; conditions: NCI 60-cell panel
Protocol: as §1

SW-620 cells = assay: NCI-60 panel antiproliferation, SW-620; type: cell-based, human; conditions: NCI 60-cell panel
Protocol: as §1

T-47D cells = assay: NCI-60 panel antiproliferation, T-47D; type: cell-based, human; conditions: NCI 60-cell panel
Protocol: as §1

TK-10 cells = assay: NCI-60 panel antiproliferation, TK-10; type: cell-based, human; conditions: NCI 60-cell panel
Protocol: as §1

U251 cells = assay: NCI-60 panel antiproliferation, U251; type: cell-based, human; conditions: NCI 60-cell panel
Protocol: as §1

UACC-62 cells = assay: NCI-60 panel antiproliferation, UACC-62; type: cell-based, human; conditions: NCI 60-cell panel
Protocol: as §1

UACC-257 cells = assay: NCI-60 panel antiproliferation, UACC-257; type: cell-based, human; conditions: NCI 60-cell panel
Protocol: as §1

UO-31 cells = assay: NCI-60 panel antiproliferation, UO-31; type: cell-based, human; conditions: NCI 60-cell panel
Protocol: as §1

786-0 cells = assay: NCI-60 panel antiproliferation, 786-0; type: cell-based, human; conditions: NCI 60-cell panel
Protocol: as §1

Structure (SMILES): COc1cc(F)c(C[C@H](C)[C@]23C[C@H](Cc4ccncc4)C(=O)C=C2OCO3)cc1O [HCl salt of compound 66, (6S,7aR)-7a-((S)-1-(2-fluoro-5-hydroxy-4-methoxyphenyl)propan-2-yl)-6-(pyridin-4-ylmethyl)-7,7a-dihydrobenzo[d][1,3]dioxol-5(6H)-one hydrochloride]
- IC50 (NCI-H460 or M14 cells): 5000 to 7000 nM

Structure (SMILES): C=CC[C@H]1C[C@]2([C@@H](C)Cc3ccc(OC)c(OC)c3)OCOC2=CC1=O [bifidenone, Bifidenone]
- IC50 (A498 cells): 460 nM
- IC50 (A549 cells): 260 nM
- IC50 (ACHN cells): 850 nM
- IC50 (BT-549 cells): 180 nM
- IC50 (Caki-1 cells): 100 nM
- IC50 (CCRF-CEM cells): 150 nM
- IC50 (COLO205 cells): 400 nM
- IC50 (DU-145 cells): 840 nM
- IC50 (EKVX cells): 280 nM
- IC50 (HCC-2998 cells): 1410 nM
- IC50 (HCT-15 cells): 230 nM
- IC50 (HCT-116 cells): 490 nM
- IC50 (HL-60 cells): 120 nM
- IC50 (HOP-62 cells): 320 nM
- IC50 (HOP-92 cells): 240 nM
- IC50 (Hs578T cells): 210 nM
- IC50 (HT29 cells): 310 nM
- IC50 (IGR-OV1 cells): 420 nM
- IC50 (K-562 cells): 180 nM
- IC50 (KM12 cells): 320 nM
- IC50 (LOX IMVI cells): 390 nM
- IC50 (M14 cells): 200 nM
- IC50 (MALME-3M cells): 90 nM
- IC50 (MCF-7 cells): 170 nM
- IC50 (MDA-MB-231 cells): 260 nM
- IC50 (MDA-MB-435 cells): 70 nM
- IC50 (MDA-MB-468 cells): 300 nM
- IC50 (MOLT-4 cells): 170 nM
- IC50 (NCI-ADR/RES cells): 170 nM
- IC50 (NCI-H23 cells): 610 nM
- IC50 (NCI-H226 cells): 810 nM
- IC50 (NCI-H322M cells): 460 nM
- IC50 (NCI-H460 cells): 320 nM
- IC50 (NCI-H522 cells): 150 nM
- IC50 (OVCAR-3 cells): 170 nM
- IC50 (OVCAR-4 cells): 290 nM
- IC50 (OVCAR-5 cells): 520 nM
- IC50 (OVCAR-8 cells): 470 nM
- IC50 (PC-3 cells): 190 nM
- IC50 (RPMI-8226 cells): 250 nM
- IC50 (RXF-393 cells): 780 nM
- IC50 (SF-268 cells): 220 nM
- IC50 (SF-295 cells): 410 nM
- IC50 (SF-539 cells): 260 nM
- IC50 (SK-Mel-2 cells): 130 nM
- IC50 (SK-Mel-5 cells): 250 nM
- IC50 (SK-MEL-28 cells): 130 nM
- IC50 (SK-OV-3 cells): 270 nM
- IC50 (SN12C cells): 330 nM
- IC50 (SNB-19 cells): 300 nM
- IC50 (SNB-75 cells): 270 nM
- IC50 (SR cells): 80 nM
- IC50 (SW-620 cells): 130 nM
- IC50 (T-47D cells): 250 nM
- IC50 (TK-10 cells): 330 nM
- IC50 (U251 cells): 610 nM
- IC50 (UACC-62 cells): 140 nM
- IC50 (UACC-257 cells): 160 nM
- IC50 (UO-31 cells): 570 nM
- IC50 (786-0 cells): 320 nM
